How the values were obtained:
[1] = system: LTD4 -induced contractions of the guinea-pig ileum; assay: Inhibiting effect on LTD4-induced contractions of the guinea-pig ileum; assay type: cell-based; settings: Cavia porcellus; isolated guinea-pig ileum, Tyrode solution, 38° C.; read-out: IC50, concentration which reduces LTD4 -induced contractions to 50% of the starting value
Procedure: Thus, they have an antiallergic action based on a pronounced LTD4 -(leucotriene-D4)- and PAF-(PAF-acetoether)-antagonism.
Inhibiting effect on LTD4 -induced contractions of the guinea-pig ileum
Contractions are triggered off by synthetic LTD4 (leucotriene D4, potassium salt) on ileum segments which have been taken from guinea-pigs with a body weight of 300 to 400 g, fixed in an organ bath in Tyrode solution (38° C., gassing with 95% of O2 and 5% of CO2) and loaded with […], and the degree of the contractions is recorded. The degree of inhibition of these contractions to be attributed to the LTD4 -antagonistic action of the test substance is measured. The concentration, designated the IC50, of the test substance which reduces LTD4 -induced contractions to 50% of the starting value is determined.

[2] = target: phospholipase A2 from human leucocytes; assay: In vitro test for the determination of the inhibition of phospholipase A2 from human leucocytes; assay type: biochemical; settings: enzyme from human leucocytes, 14C-oleic acid labelled E. coli phospholipids, pH 7, 37° C., 1 hour; read-out: IC50, concentration which causes an inhibition of 50% of the control activity of phospholipase A2
Source text: In vitro test for the determination of the inhibition of phospholipase A2 from human leucocytes
Neutrophilic polymorphonuclear human leucocytes are isolated, starting from "buffy coats" by multi-stage fractional sedimentation and are deep-frozen.The phospholipase A2 is extracted from the cell suspension by homogenisation with the addition of ice-cold 0.36N H2 SO4 in 2M NaCl, and the supernatant obtained after centrifugation at 10,000 g is dialysed against sodium acetate buffer, pH 4.5.
To determine the enzyme activity, the enzyme (10-30 μg of protein) is incubated in 0.1M tris/HCl buffer, pH 7, with the addition of 1 mM CaCl2 and substrate consisting of phospholipids (2 μM), radioactively labelled biosynthetically with ^14 C-oleic acid, of Escherichia coli, at 37° C. for 1 hour. The reaction is stopped by addition of Dole reagent (isopropanol/heptane/1N H2 SO4 40:10:1, volume/volume) and the ^14 C-oleic acid released selectively by phospholipase A2 is extracted. The substrate also co-extracted is removed completely by filtration of the extract through a silica gel column. The ^14 C-oleic acid in the eluate is determined by radiometry.
To determine an inhibiting effect of test substances on the phospholipase A2, these are added to the incubation batch as solutions in water, dimethylsulfoxide (final concentration in the batch up to 5 vol %) or ethanol (final concentration in the batch up to 2.5 vol %). The action potency of the test substances is expressed by the IC50, i.e. the concentration which causes an inhibition of 50% of the control activity. The IC50 is determined graphically by plotting the percentage inhibition on the ordinate against the logarithm of the concentration (μM) on the abscissa.

IC50 [1] [µM] | IC50 [2] [µM] | Structure (SMILES)
0.087 | > 100 | CCCc1c(OCC(O)COc2cccc(NC(=O)C(=O)O)c2C#N)ccc(C(C)=O)c1O (centres unmarked) [N-{3-[3-(4-acetyl-3-hydroxy-2-propyl-phenoxy)-2-hydroxypropoxy]-2-cyano-phenyl}-oxamic acid, reference compound]
– | 13 | CC(=O)c1ccc(OCCCOc2cc(NC(=O)c3nnn[nH]3)c(C)cc2Cl)c(CCC(F)(F)F)c1O [N-{{3-{3-[4-acetyl-3-hydroxy-2-(3,3,3-trifluoropropyl)-phenoxy]-propoxy}-4-chloro-6-methyl-phenyl}}-1H-tetrazole-5-carboxamide]
0.01 | 12 | CC(=O)c1ccc(OCCCOc2cc(NC(=O)c3nnn[nH]3)c(C)cc2Br)c(CCC(F)(F)F)c1O [N-{{3-{3-[4-acetyl-3-hydroxy-2-(3,3,3-trifluoropropyl)phenoxy]-propoxy}-4-bromo-6-methyl-phenyl}}-1H-tetrazole-5-carboxamide]
